Earlier results as cited in patent US20250205347A1, “METHODS FOR TREATING INFLAMMATORY CONDITIONS OF THE EYE WITH AN IGF-1R LIGAND CONJUGATED TO A DISEASE-MODIFYING AGENT” (Lirum Therapeutics, Inc., priority 2022, published 2025).

Key:
IGFBPs = details: known in the art (U.S. Pat. No. 4,876,242; Francis et al. 1992)
IGF-1R = IGF-1R (Homo sapiens, UniProt P08069); details: relative to IGF-1 / IGF-2; Hakuno et al. 2018
IGF-1R, sequence (P08069 31-736 limits assumed, species assumed): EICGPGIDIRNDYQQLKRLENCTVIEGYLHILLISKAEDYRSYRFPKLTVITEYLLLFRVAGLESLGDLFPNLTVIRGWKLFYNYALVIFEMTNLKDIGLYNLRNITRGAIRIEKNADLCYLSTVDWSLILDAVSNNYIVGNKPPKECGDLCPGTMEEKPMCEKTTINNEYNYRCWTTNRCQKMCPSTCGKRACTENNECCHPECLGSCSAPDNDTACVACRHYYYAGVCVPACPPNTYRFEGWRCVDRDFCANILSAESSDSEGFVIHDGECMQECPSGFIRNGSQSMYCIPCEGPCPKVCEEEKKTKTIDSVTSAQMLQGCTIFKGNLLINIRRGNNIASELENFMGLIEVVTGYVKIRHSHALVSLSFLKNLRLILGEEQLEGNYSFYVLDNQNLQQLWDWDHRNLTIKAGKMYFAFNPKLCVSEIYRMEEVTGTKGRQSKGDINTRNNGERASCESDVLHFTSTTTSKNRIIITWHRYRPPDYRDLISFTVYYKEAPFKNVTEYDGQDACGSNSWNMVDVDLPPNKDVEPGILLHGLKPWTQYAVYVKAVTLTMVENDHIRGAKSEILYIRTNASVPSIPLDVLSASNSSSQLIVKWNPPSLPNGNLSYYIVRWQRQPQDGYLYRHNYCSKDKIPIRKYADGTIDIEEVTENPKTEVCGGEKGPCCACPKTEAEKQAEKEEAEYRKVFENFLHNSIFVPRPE
IGF-1R, sequence (P08069 741-1367 partner limits assumed, species assumed): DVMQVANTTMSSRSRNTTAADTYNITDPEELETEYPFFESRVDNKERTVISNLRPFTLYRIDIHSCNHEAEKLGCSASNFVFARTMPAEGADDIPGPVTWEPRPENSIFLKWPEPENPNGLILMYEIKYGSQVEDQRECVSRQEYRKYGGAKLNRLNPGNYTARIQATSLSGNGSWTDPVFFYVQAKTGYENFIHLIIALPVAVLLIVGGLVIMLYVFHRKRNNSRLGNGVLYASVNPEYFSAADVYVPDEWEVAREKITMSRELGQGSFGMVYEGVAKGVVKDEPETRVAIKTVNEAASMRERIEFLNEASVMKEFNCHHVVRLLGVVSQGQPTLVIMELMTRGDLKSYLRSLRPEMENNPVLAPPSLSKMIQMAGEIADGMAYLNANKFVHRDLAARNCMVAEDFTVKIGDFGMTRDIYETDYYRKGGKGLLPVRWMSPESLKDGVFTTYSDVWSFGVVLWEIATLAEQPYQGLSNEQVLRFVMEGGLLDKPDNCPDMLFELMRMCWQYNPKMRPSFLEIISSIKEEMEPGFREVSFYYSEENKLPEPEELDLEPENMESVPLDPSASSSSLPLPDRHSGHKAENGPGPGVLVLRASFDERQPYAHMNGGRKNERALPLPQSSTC

R3-IGF-1: IGF-1 variant (SEQ ID NO:6): glutamic acid in position 3 of human IGF-1 substituted by arginine
binding affinity for IGFBPs as compared to wildtype IGF-1 (IGFBPs): reduced binding affinity for IGFBPs

des(1-3) IGF-1: IGF-1 variant (SEQ ID NO:7) lacking the first three amino acids of human IGF-1
binding affinity for IGFBPs as compared to wildtype IGF-1 (IGFBPs): reduced binding affinity for IGFBPs

insulin: native IGF-1R ligand; mature human insulin, chain A SEQ ID NO:10 and chain B SEQ ID NO:11
affinity of IGF-1R for the ligand, fold lower (IGF-1R): 50-to 100 fold

B1: IGF132: IGF-1 variant (SEQ ID NO:4): first 17 amino acids of insulin B chain replace first 16 amino acids of human IGF-1 (protein)
chain: FVNQHLCGSHLVEALYLVCGDRGFYFNKPTGYGSSSRRAPQTGIVDECCFRSCDLRRLEMYCAPLKPAKSA
binding affinity for IGFBPs as compared to wildtype IGF-1 (IGFBPs): reduced binding affinity for IGFBPs
